Assay results from PubChem BioAssay (NCI).
Values joined by “and” are separate entries in the source; they are usually repeats but may differ in a detail not shown here. Equal values may be shown once.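 The compound was tested at five concentrations on cells cultured in 96-well plates, with a 48-hour exposure period. GI50: concentration for 50% inhibition of growth. TGI: total growth inhibition.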

Columns and labels:
Test in all cases: NCI-60 cell line screen, 48 h
DU-145 prostate = system: DU-145 prostate
OVCAR-4 ovarian = system: OVCAR-4 ovarian
T-47D breast = system: T-47D breast
SK-MEL-28 melanoma = system: SK-MEL-28 melanoma
NCI-H522 lung = system: NCI-H522 lung
CAKI-1 renal = system: CAKI-1 renal
SK-OV-3 ovarian = system: SK-OV-3 ovarian
IGROV1 ovarian = system: IGROV1 ovarian
HOP-62 NSCLC = system: HOP-62 NSCLC
786-0 renal = system: 786-0 renal
OVCAR-8 ovarian = system: OVCAR-8 ovarian
M14 melanoma = system: M14 melanoma
SF-539 CNS = system: SF-539 CNS
K-562 leukemia = system: K-562 leukemia
A549 NSCLC = system: A549 NSCLC
MALME-3M melanoma = system: MALME-3M melanoma
OVCAR-5 ovarian = system: OVCAR-5 ovarian
HCT-15 colon = system: HCT-15 colon
PC-3 prostate = system: PC-3 prostate
NCI-H460 lung = system: NCI-H460 lung
SF-268 CNS = system: SF-268 CNS
SR leukemia = system: SR leukemia
SK-MEL-2 melanoma = system: SK-MEL-2 melanoma
SW-620 colon = system: SW-620 colon
KM12 colon = system: KM12 colon
NCI-H226 lung = system: NCI-H226 lung
MCF7 breast = system: MCF7 breast
OVCAR-3 ovarian = system: OVCAR-3 ovarian
MOLT-4 leukemia = system: MOLT-4 leukemia
RXF 393 renal = system: RXF 393 renal
MDA-MB-231 breast = system: MDA-MB-231 breast
MDA-MB-435 = system: MDA-MB-435
COLO 205 colon = system: COLO 205 colon
HCT-116 colon = system: HCT-116 colon
HOP-92 NSCLC = system: HOP-92 NSCLC
HS 578T breast = system: HS 578T breast
U251 CNS = system: U251 CNS
EKVX NSCLC = system: EKVX NSCLC
A498 renal = system: A498 renal
SF-295 CNS = system: SF-295 CNS
HT29 colon = system: HT29 colon
BT-549 breast = system: BT-549 breast
ACHN renal = system: ACHN renal
HCC-2998 colon = system: HCC-2998 colon
TK-10 renal = system: TK-10 renal
NCI/ADR-RES ovarian = system: NCI/ADR-RES ovarian
UACC-62 melanoma = system: UACC-62 melanoma
UACC-257 melanoma = system: UACC-257 melanoma
SNB-75 CNS = system: SNB-75 CNS
LOX IMVI melanoma = system: LOX IMVI melanoma
SN12C renal = system: SN12C renal
SK-MEL-5 melanoma = system: SK-MEL-5 melanoma
SNB-19 CNS = system: SNB-19 CNS
RPMI-8226 leukemia = system: RPMI-8226 leukemia
NCI-H23 lung = system: NCI-H23 lung
UO-31 renal = system: UO-31 renal

Q: What does the source list for `O=C(Nc1ccc2oc(=O)c(C(=O)O)cc2c1)Oc1ccccc1`?
A: TGI (DU-145 prostate): > 100 µM; TGI (OVCAR-4 ovarian): > 100 µM; TGI (T-47D breast): > 100 µM; TGI (SK-MEL-28 melanoma): > 100 µM; TGI (NCI-H522 lung): > 100 µM; TGI (CAKI-1 renal): > 100 µM; TGI (SK-OV-3 ovarian): > 100 µM; TGI (IGROV1 ovarian): > 100 µM; TGI (HOP-62 NSCLC): > 100 µM; TGI (786-0 renal): > 100 µM; TGI (OVCAR-8 ovarian): > 100 µM; TGI (M14 melanoma): > 100 µM; TGI (SF-539 CNS): > 100 µM; TGI (K-562 leukemia): > 100 µM; TGI (A549 NSCLC): > 100 µM; TGI (MALME-3M melanoma): > 100 µM; TGI (OVCAR-5 ovarian): > 100 µM; TGI (HCT-15 colon): > 100 µM; TGI (PC-3 prostate): > 100 µM; TGI (NCI-H460 lung): > 100 µM; TGI (SF-268 CNS): > 100 µM; TGI (SR leukemia): > 100 µM; TGI (SK-MEL-2 melanoma): > 100 µM; TGI (SW-620 colon): > 100 µM; TGI (KM12 colon): > 100 µM; TGI (NCI-H226 lung): > 100 µM; TGI (MCF7 breast): > 100 µM; TGI (OVCAR-3 ovarian): > 100 µM; TGI (MOLT-4 leukemia): > 100 µM; TGI (RXF 393 renal): > 100 µM; TGI (MDA-MB-231 breast): > 100 µM; TGI (MDA-MB-435): > 100 µM; TGI (COLO 205 colon): > 100 µM; TGI (HCT-116 colon): > 100 µM; TGI (HOP-92 NSCLC): > 100 µM; TGI (HS 578T breast): > 100 µM; TGI (U251 CNS): > 100 µM; TGI (EKVX NSCLC): > 100 µM; TGI (A498 renal): > 100 µM; TGI (SF-295 CNS): > 100 µM; TGI (HT29 colon): > 100 µM; TGI (BT-549 breast): > 100 µM; TGI (ACHN renal): > 100 µM; TGI (HCC-2998 colon): > 100 µM; TGI (TK-10 renal): > 100 µM; TGI (NCI/ADR-RES ovarian): > 100 µM; TGI (UACC-62 melanoma): > 100 µM; TGI (UACC-257 melanoma): > 100 µM; TGI (SNB-75 CNS): > 100 µM; TGI (LOX IMVI melanoma): > 100 µM; TGI (SN12C renal): > 100 µM; TGI (SK-MEL-5 melanoma): > 100 µM; TGI (SNB-19 CNS): > 100 µM; TGI (RPMI-8226 leukemia): > 100 µM; TGI (NCI-H23 lung): > 100 µM; TGI (UO-31 renal): > 100 µM

Q: `CCOC(=O)C(Cc1c[nH]c2cc([N+](=O)[O-])ccc12)(NC(C)=O)C(=O)OCC` was tested. Which GI50 (DU-145 prostate) did it give?
A: > 542 µM

Q: And the TGI (DU-145 prostate)?
A: > 1000 µM

Q: And the GI50 (OVCAR-4 ovarian)?
A: > 1 mM

Q: What about the TGI (OVCAR-4 ovarian) of the same compound?
A: > 1000 µM

Q: And the GI50 (T-47D breast)?
A: 40.7 µM and 105 µM

Q: And the TGI (T-47D breast)?
A: > 1000 µM

Q: And the GI50 (SK-MEL-28 melanoma)?
A: > 1 mM

Q: What about the TGI (SK-MEL-28 melanoma) of the same compound?
A: > 1000 µM

Q: What about the TGI (NCI-H522 lung) of the same compound?
A: > 1000 µM

Q: And the GI50 (CAKI-1 renal)?
A: 190 µM

Q: And the TGI (CAKI-1 renal)?
A: > 1000 µM

Q: And the GI50 (SK-OV-3 ovarian)?
A: 184 µM

Q: And the TGI (SK-OV-3 ovarian)?
A: > 1000 µM

Q: What about the GI50 (IGROV1 ovarian) of the same compound?
A: 176 µM

Q: What about the TGI (IGROV1 ovarian) of the same compound?
A: > 1000 µM

Q: What about the GI50 (HOP-62 NSCLC) of the same compound?
A: 161 µM

Q: And the TGI (HOP-62 NSCLC)?
A: 461 µM

Q: What about the GI50 (786-0 renal) of the same compound?
A: 175 µM

Q: What about the TGI (786-0 renal) of the same compound?
A: > 754 µM

Q: And the GI50 (OVCAR-8 ovarian)?
A: 30.3 µM and 104 µM

Q: And the TGI (OVCAR-8 ovarian)?
A: > 1000 µM

Q: And the GI50 (M14 melanoma)?
A: > 931 µM

Q: What about the GI50 (SF-539 CNS) of the same compound?
A: 68.3 µM and 84.2 µM

Q: What about the TGI (SF-539 CNS) of the same compound?
A: 330 µM

Q: And the TGI (A549 NSCLC)?
A: > 1000 µM

Q: What about the GI50 (MALME-3M melanoma) of the same compound?
A: 171 µM

Q: What about the TGI (MALME-3M melanoma) of the same compound?
A: > 1000 µM

Q: And the GI50 (OVCAR-5 ovarian)?
A: > 833 µM

Q: And the TGI (OVCAR-5 ovarian)?
A: > 1000 µM

Q: What about the GI50 (HCT-15 colon) of the same compound?
A: > 1 mM

Q: And the TGI (HCT-15 colon)?
A: > 1000 µM

Q: And the TGI (PC-3 prostate)?
A: > 1000 µM

Q: And the TGI (NCI-H460 lung)?
A: > 1000 µM

Q: What about the GI50 (SF-268 CNS) of the same compound?
A: 95.1 µM

Q: And the TGI (SF-268 CNS)?
A: > 1000 µM

Q: And the GI50 (SR leukemia)?
A: 26.3 µM

Q: And the TGI (SR leukemia)?
A: 446 µM

Q: And the GI50 (SK-MEL-2 melanoma)?
A: 36 µM and 168 µM

Q: And the TGI (SK-MEL-2 melanoma)?
A: 97.9 µM and 401 µM

Q: And the GI50 (SW-620 colon)?
A: > 1 mM

Q: What about the TGI (SW-620 colon) of the same compound?
A: > 1000 µM

Q: What about the GI50 (KM12 colon) of the same compound?
A: > 1 mM

Q: What about the TGI (KM12 colon) of the same compound?
A: > 1000 µM

Q: And the GI50 (NCI-H226 lung)?
A: > 769 µM

Q: And the TGI (NCI-H226 lung)?
A: > 1000 µM

Q: What about the TGI (MCF7 breast) of the same compound?
A: > 1000 µM

Q: And the GI50 (OVCAR-3 ovarian)?
A: > 1 mM

Q: And the TGI (OVCAR-3 ovarian)?
A: > 1000 µM

Q: What about the GI50 (MOLT-4 leukemia) of the same compound?
A: 35.2 µM

Q: What about the GI50 (RXF 393 renal) of the same compound?
A: 58.6 µM

Q: What about the TGI (RXF 393 renal) of the same compound?
A: 133 µM

Q: And the GI50 (MDA-MB-231 breast)?
A: 167 µM

Q: And the TGI (MDA-MB-231 breast)?
A: > 715 µM

Q: And the GI50 (MDA-MB-435)?
A: > 649 µM

Q: And the TGI (MDA-MB-435)?
A: > 1000 µM

Q: What about the GI50 (COLO 205 colon) of the same compound?
A: > 1 mM

Q: What about the TGI (COLO 205 colon) of the same compound?
A: > 1000 µM

Q: And the GI50 (HCT-116 colon)?
A: 390 µM

Q: What about the TGI (HCT-116 colon) of the same compound?
A: > 1000 µM

Q: And the GI50 (HOP-92 NSCLC)?
A: 47.5 µM

Q: And the TGI (HOP-92 NSCLC)?
A: 141 µM

Q: What about the GI50 (HS 578T breast) of the same compound?
A: 61.3 µM

Q: What about the TGI (HS 578T breast) of the same compound?
A: > 798 µM

Q: What about the GI50 (U251 CNS) of the same compound?
A: 104 µM

Q: And the TGI (U251 CNS)?
A: > 693 µM

Q: What about the GI50 (EKVX NSCLC) of the same compound?
A: 59 µM

Q: And the TGI (EKVX NSCLC)?
A: > 614 µM

Q: And the GI50 (A498 renal)?
A: 55.3 µM

Q: And the TGI (A498 renal)?
A: 203 µM

Q: What about the GI50 (SF-295 CNS) of the same compound?
A: 57.9 µM and 56.9 µM

Q: And the TGI (SF-295 CNS)?
A: > 478 µM

Q: And the GI50 (HT29 colon)?
A: > 1 mM

Q: And the TGI (HT29 colon)?
A: > 1000 µM

Q: And the GI50 (BT-549 breast)?
A: 64.9 µM and 75 µM

Q: What about the TGI (BT-549 breast) of the same compound?
A: > 682 µM

Q: What about the GI50 (ACHN renal) of the same compound?
A: 178 µM

Q: And the TGI (ACHN renal)?
A: > 1000 µM

Q: What about the GI50 (HCC-2998 colon) of the same compound?
A: > 1 mM

Q: What about the TGI (HCC-2998 colon) of the same compound?
A: > 1000 µM

Q: And the GI50 (TK-10 renal)?
A: 296 µM

Q: And the TGI (TK-10 renal)?
A: > 760 µM

Q: What about the GI50 (NCI/ADR-RES ovarian) of the same compound?
A: 92.2 µM and 331 µM

Q: And the TGI (NCI/ADR-RES ovarian)?
A: > 1000 µM

Q: And the TGI (UACC-62 melanoma)?
A: > 1000 µM

Q: And the TGI (UACC-257 melanoma)?
A: > 1000 µM

Q: And the GI50 (SNB-75 CNS)?
A: 93.5 µM and 46.8 µM

Q: And the TGI (SNB-75 CNS)?
A: 114 µM

Q: And the GI50 (LOX IMVI melanoma)?
A: > 766 µM

Q: And the TGI (LOX IMVI melanoma)?
A: > 1000 µM

Q: And the GI50 (SN12C renal)?
A: 401 µM

Q: What about the TGI (SN12C renal) of the same compound?
A: > 1000 µM

Q: What about the GI50 (SNB-19 CNS) of the same compound?
A: 148 µM

Q: And the TGI (SNB-19 CNS)?
A: > 824 µM

Q: What about the GI50 (RPMI-8226 leukemia) of the same compound?
A: 45 µM

Q: And the GI50 (NCI-H23 lung)?
A: 138 µM

Q: And the TGI (NCI-H23 lung)?
A: > 1000 µM

Q: And the GI50 (UO-31 renal)?
A: 43.4 µM and 188 µM

Q: And the TGI (UO-31 renal)?
A: > 1000 µM
